Experimental data from the supplement of paper PMC11208160.

Experiment: recombinant barcode read abundance after kanamycin selection (control-corrected) (log10(CPM+1)); higher = more efficient recombination; sequences stand for … in AGTGCAGAGAAAATCGGCCAGTTTTCTCTGCCTGCAGTCCGCATGCCGT…AGATTTATGCAGCGGACTGCCTTTCTCCCAAAGTGATAAACCGGACAGTATCATGGACCGGTTTTCCCGGTAATCCGTATTTGCAAGGTTGGTTTCACT; site = the 11-nt target
Method in brief: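 In E. coli, a pooled library matched targets to IS621 bridge RNA target-binding loops and was introduced alongside a donor plasmid. Cells went onto chloramphenicol/ampicillin/kanamycin with 0.1 mM IPTG or onto chloramphenicol/ampicillin LB agar as control, in duplicate. Recombination efficiency, from recombinant-junction barcodes as counts per million, is averaged and control-corrected. It is reported as log10(CPM+1).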
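Note: IS621 recombinase and bridge RNA in Escherichia coli cells.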

TAGAACTCTTGGGTTCTAACCTGTTGCCG (site TAGAACTCTAG)
recombinant barcode read abundance (log10): 0.242

TAGAACTCTTGGGTTCTAACCTGTTGCCG (site TAGAACTCTCG)
recombinant barcode read abundance (log10): 0.591

TAGAACTCTTGGGTTCTAACCTGTTGCCG (site TAGAACTCTGG)
recombinant barcode read abundance (log10): 0.0844

TAGAACTCTTGGGTTCTAACCTGTTGCCG (site TAGAACTCTTG)
recombinant barcode read abundance (log10): 0.127

TAGAAGACTTGGGTTCTAACCTGTTGCTT (site TAGAAGACTAA)
recombinant barcode read abundance (log10): 0.37

TAGAAGACTTGGGTTCTAACCTGTTGCTT (site TAGAAGACTCA)
recombinant barcode read abundance (log10): 0.282

TAGAAGACTTGGGTTCTAACCTGTTGCTT (site TAGAAGACTGA)
recombinant barcode read abundance (log10): 0.0968

TAGAAGACTTGGGTTCTAACCTGTTGCTT (site TAGAAGACTTA)
recombinant barcode read abundance (log10): 0.399

TAGAAGGCTTGGGTTCTAACCTGTTGCTA (site TAGAAGCCTTA)
recombinant barcode read abundance (log10): 0.0194

TAGAAGGCTTGGGTTCTAACCTGTTGCTA (site TAGAAGGCTTA)
recombinant barcode read abundance (log10): 1.15

TAGAAGTCTTGGGTTCTAACCTGTTGCTG (site AAGATGTCTCA)
recombinant barcode read abundance (log10): 0.122

TAGAAGTCTTGGGTTCTAACCTGTTGCTG (site TAGAAGTCTCA)
recombinant barcode read abundance (log10): 1.46

TAGAATACTTGGGTTCTAACCTGTTGCGG (site TAGAATACTCC)
recombinant barcode read abundance (log10): 1.06

TAGAATACTTGGGTTCTAACCTGTTGCGG (site TATAATACTCC)
recombinant barcode read abundance (log10): 0.0627

TAGAATCCTTGGGTTCTAACCTGTTGCAC (site TAGAATCCTAT)
recombinant barcode read abundance (log10): 0.117

TAGAATCCTTGGGTTCTAACCTGTTGCAC (site TAGAATCCTCT)
recombinant barcode read abundance (log10): 0.152

TAGAATCCTTGGGTTCTAACCTGTTGCAC (site TAGAATCCTGT)
recombinant barcode read abundance (log10): 0.152

TAGAATCCTTGGGTTCTAACCTGTTGCAC (site TAGAATCCTTT)
recombinant barcode read abundance (log10): 0.103

TAGACAGCTTGGGTTCTAACCTGTTGCCT (site TAAACAGCTAG)
recombinant barcode read abundance (log10): 0.143

TAGACAGCTTGGGTTCTAACCTGTTGCCT (site TACACAGCTAG)
recombinant barcode read abundance (log10): 0.122

TAGACAGCTTGGGTTCTAACCTGTTGCCT (site TAGACAGCTAG)
recombinant barcode read abundance (log10): 0.416

TAGACAGCTTGGGTTCTAACCTGTTGCCT (site TATACAGCTAG)
recombinant barcode read abundance (log10): 0.0229

TAGACGACTTGGGTTCTAACCTGTTGCAC (site TAGACGACTGT)
recombinant barcode read abundance (log10): 1.57

TAGACGACTTGGGTTCTAACCTGTTGCAC (site TAGCCGTCTGT)
recombinant barcode read abundance (log10): 0.173

TAGACGACTTGGGTTCTAACCTGTTGCTT (site TAGACGACTAA)
recombinant barcode read abundance (log10): 0.829

TAGACGACTTGGGTTCTAACCTGTTGCTT (site TAGCCGACTAA)
recombinant barcode read abundance (log10): 0.0758

TAGACGACTTGGGTTCTAACCTGTTGCTT (site TAGGCGACTAA)
recombinant barcode read abundance (log10): 0.0736

TAGACGACTTGGGTTCTAACCTGTTGCTT (site TAGTCGACTAA)
recombinant barcode read abundance (log10): 0.086

TAGACTACTTGGGTTCTAACCTGTTGCCT (site CAGACTCCTAG)
recombinant barcode read abundance (log10): 0.055

TAGACTACTTGGGTTCTAACCTGTTGCCT (site TAGACTACTAG)
recombinant barcode read abundance (log10): 0.521

TAGACTACTTGGGTTCTAACCTGTTGCTC (site TAGACTACTAA)
recombinant barcode read abundance (log10): 0

TAGACTACTTGGGTTCTAACCTGTTGCTC (site TAGACTACTCA)
recombinant barcode read abundance (log10): 0.082

TAGACTACTTGGGTTCTAACCTGTTGCTC (site TAGACTACTGA)
recombinant barcode read abundance (log10): 0.123

TAGACTACTTGGGTTCTAACCTGTTGCTC (site TAGACTACTTA)
recombinant barcode read abundance (log10): 0.0392

TAGACTACTTGGGTTCTAACCTGTTGCTG (site TAGACTACTAA)
recombinant barcode read abundance (log10): 0.0928

TAGACTACTTGGGTTCTAACCTGTTGCTG (site TAGACTACTCA)
recombinant barcode read abundance (log10): 0.609

TAGACTACTTGGGTTCTAACCTGTTGCTG (site TAGACTACTGA)
recombinant barcode read abundance (log10): 0.215

TAGACTACTTGGGTTCTAACCTGTTGCTG (site TAGACTACTTA)
recombinant barcode read abundance (log10): 0.0595

TAGAGCACTTGGGTTCTAACCTGTTGCCT (site AAGAGCACTAG)
recombinant barcode read abundance (log10): 0.057

TAGAGCACTTGGGTTCTAACCTGTTGCCT (site CAGAGCACTAG)
recombinant barcode read abundance (log10): 0.114

TAGAGCACTTGGGTTCTAACCTGTTGCCT (site GAGAGCACTAG)
recombinant barcode read abundance (log10): 0.0873

TAGAGCACTTGGGTTCTAACCTGTTGCCT (site TAGAGCACTAG)
recombinant barcode read abundance (log10): 0.644

TAGATCACTTGGGTTCTAACCTGTTGCAT (site TAGATCACTAT)
recombinant barcode read abundance (log10): 0.629

TAGATCACTTGGGTTCTAACCTGTTGCAT (site TAGCTCACTAT)
recombinant barcode read abundance (log10): 0.408

TAGATCACTTGGGTTCTAACCTGTTGCAT (site TAGGTCACTAT)
recombinant barcode read abundance (log10): 0.0386

TAGATCACTTGGGTTCTAACCTGTTGCAT (site TAGTTCACTAT)
recombinant barcode read abundance (log10): 0.0464

TAGATTACTTGGGTTCTAACCTGTTGCCT (site TAAAATACTAG)
recombinant barcode read abundance (log10): 0.12

TAGATTACTTGGGTTCTAACCTGTTGCCT (site TAGATTACTAG)
recombinant barcode read abundance (log10): 0.178

TAGATTCCTTGGGTTCTAACCTGTTGCAA (site CGACAGTCTAG)
recombinant barcode read abundance (log10): 0.102

TAGATTCCTTGGGTTCTAACCTGTTGCAA (site TAGATTCCTTT)
recombinant barcode read abundance (log10): 0.0712

TAGCACCCTTGGGTTCTAACCTGTTGCCA (site TAGCACCCTAG)
recombinant barcode read abundance (log10): 0.394

TAGCACCCTTGGGTTCTAACCTGTTGCCA (site TAGCACCCTCG)
recombinant barcode read abundance (log10): 0.218

TAGCACCCTTGGGTTCTAACCTGTTGCCA (site TAGCACCCTGG)
recombinant barcode read abundance (log10): 0.156

TAGCACCCTTGGGTTCTAACCTGTTGCCA (site TAGCACCCTTG)
recombinant barcode read abundance (log10): 0.965

TAGCACCCTTGGGTTCTAACCTGTTGCCT (site TAGCACCCTAG)
recombinant barcode read abundance (log10): 1.79

TAGCACCCTTGGGTTCTAACCTGTTGCCT (site TAGCACCCTCG)
recombinant barcode read abundance (log10): 0.0128

TAGCACCCTTGGGTTCTAACCTGTTGCCT (site TAGCACCCTGG)
recombinant barcode read abundance (log10): 0.671

TAGCACCCTTGGGTTCTAACCTGTTGCCT (site TAGCACCCTTG)
recombinant barcode read abundance (log10): 0.144

TAGCATACTTGGGTTCTAACCTGTTGCCT (site TAGCATACTAG)
recombinant barcode read abundance (log10): 1.37

TAGCATACTTGGGTTCTAACCTGTTGCCT (site TAGCATACTCG)
recombinant barcode read abundance (log10): 0.112

TAGCATACTTGGGTTCTAACCTGTTGCCT (site TAGCATACTGG)
recombinant barcode read abundance (log10): 0.308

TAGCATACTTGGGTTCTAACCTGTTGCCT (site TAGCATACTTG)
recombinant barcode read abundance (log10): 0.0681

TAGCCCACTTGGGTTCTAACCTGTTGCGG (site TAGCACACTCC)
recombinant barcode read abundance (log10): 0.0811

TAGCCCACTTGGGTTCTAACCTGTTGCGG (site TAGCCCACTCC)
recombinant barcode read abundance (log10): 1.35

TAGCCCACTTGGGTTCTAACCTGTTGCGG (site TAGCGCACTCC)
recombinant barcode read abundance (log10): 0.0188

TAGCCCACTTGGGTTCTAACCTGTTGCGG (site TAGCTCACTCC)
recombinant barcode read abundance (log10): 0.393

TAGCCTACTTGGGTTCTAACCTGTTGCCG (site TAGCCTACTCG)
recombinant barcode read abundance (log10): 0.725

TAGCCTACTTGGGTTCTAACCTGTTGCCG (site TAGGCTCCTCG)
recombinant barcode read abundance (log10): 0.0184

TAGCCTACTTGGGTTCTAACCTGTTGCGA (site TAGCCTACTAC)
recombinant barcode read abundance (log10): 0.0304

TAGCCTACTTGGGTTCTAACCTGTTGCGA (site TAGCCTACTCC)
recombinant barcode read abundance (log10): 0.416

TAGCCTACTTGGGTTCTAACCTGTTGCGA (site TAGCCTACTGC)
recombinant barcode read abundance (log10): 0.00843

TAGCCTACTTGGGTTCTAACCTGTTGCGA (site TAGCCTACTTC)
recombinant barcode read abundance (log10): 1.2

TAGCCTACTTGGGTTCTAACCTGTTGCGC (site TAGCCTACTAC)
recombinant barcode read abundance (log10): 0.0597

TAGCCTACTTGGGTTCTAACCTGTTGCGC (site TAGCCTACTCC)
recombinant barcode read abundance (log10): 0.0856

TAGCCTACTTGGGTTCTAACCTGTTGCGC (site TAGCCTACTGC)
recombinant barcode read abundance (log10): 1.84

TAGCCTACTTGGGTTCTAACCTGTTGCGC (site TAGCCTACTTC)
recombinant barcode read abundance (log10): 0.0255

TAGCCTACTTGGGTTCTAACCTGTTGCGT (site TAGCCTACTAC)
recombinant barcode read abundance (log10): 0.581
